From PubChem BioAssay (NCI)
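Five compound concentrations were applied to cells in 96-well plates for 48 hours; endpoints were derived by simple linear interpolation of the resulting dose-response curve. TGI is the concentration that stops growth completely.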

How the values were obtained:
Experiment in all cases: NCI tumour cell line growth inhibition, 48 h
NCI-H226 lung = test system: NCI-H226 lung
HCC-2998 colon = test system: HCC-2998 colon
A498 renal = test system: A498 renal
SF-539 CNS = test system: SF-539 CNS
T-47D breast = test system: T-47D breast
ACHN renal = test system: ACHN renal
MCF7 breast = test system: MCF7 breast
DU-145 prostate = test system: DU-145 prostate
MDA-N = test system: MDA-N
SW-620 colon = test system: SW-620 colon
SF-295 CNS = test system: SF-295 CNS
RPMI-8226 leukemia = test system: RPMI-8226 leukemia
TK-10 renal = test system: TK-10 renal
NCI-H23 lung = test system: NCI-H23 lung
SN12C renal = test system: SN12C renal
HL-60(TB) leukemia = test system: HL-60(TB) leukemia
UO-31 renal = test system: UO-31 renal
HCT-116 colon = test system: HCT-116 colon
SK-MEL-5 melanoma = test system: SK-MEL-5 melanoma
OVCAR-5 ovarian = test system: OVCAR-5 ovarian
IGROV1 ovarian = test system: IGROV1 ovarian
MDA-MB-231 breast = test system: MDA-MB-231 breast
EKVX NSCLC = test system: EKVX NSCLC
CAKI-1 renal = test system: CAKI-1 renal
OVCAR-3 ovarian = test system: OVCAR-3 ovarian
HT29 colon = test system: HT29 colon
NCI/ADR-RES ovarian = test system: NCI/ADR-RES ovarian
M14 melanoma = test system: M14 melanoma
MOLT-4 leukemia = test system: MOLT-4 leukemia
MDA-MB-435 = test system: MDA-MB-435
U251 CNS = test system: U251 CNS
SNB-75 CNS = test system: SNB-75 CNS
SNB-19 CNS = test system: SNB-19 CNS
HOP-92 NSCLC = test system: HOP-92 NSCLC
COLO 205 colon = test system: COLO 205 colon
HOP-62 NSCLC = test system: HOP-62 NSCLC
OVCAR-8 ovarian = test system: OVCAR-8 ovarian
NCI-H460 lung = test system: NCI-H460 lung
UACC-257 melanoma = test system: UACC-257 melanoma
CCRF-CEM leukemia = test system: CCRF-CEM leukemia
NCI-H522 lung = test system: NCI-H522 lung
SK-MEL-2 melanoma = test system: SK-MEL-2 melanoma
MALME-3M melanoma = test system: MALME-3M melanoma
UACC-62 melanoma = test system: UACC-62 melanoma
SF-268 CNS = test system: SF-268 CNS
HCT-15 colon = test system: HCT-15 colon
786-0 renal = test system: 786-0 renal
KM12 colon = test system: KM12 colon
RXF 393 renal = test system: RXF 393 renal
PC-3 prostate = test system: PC-3 prostate
SK-OV-3 ovarian = test system: SK-OV-3 ovarian
SK-MEL-28 melanoma = test system: SK-MEL-28 melanoma
BT-549 breast = test system: BT-549 breast
OVCAR-4 ovarian = test system: OVCAR-4 ovarian
A549 NSCLC = test system: A549 NSCLC
HS 578T breast = test system: HS 578T breast
K-562 leukemia = test system: K-562 leukemia
LOX IMVI melanoma = test system: LOX IMVI melanoma

Measured: TGI

COc1cc2c(cc1OC)C1C(O)C(OC)C(Br)C3(Br)CCN(C2)C13 (configuration not stated)
not listed: K-562 leukemia | LOX IMVI melanoma
> 100 µM: all other assays above

C[C@]12CC(c3ccccc3O1)C(C(N)=O)C(=O)N2 (some centres not stated)
not listed: SF-539 CNS | SF-295 CNS | TK-10 renal | UO-31 renal
> 100 µM: all other assays above

O=C(C(=NC12CC3CC(CC(C3)C1)C2)NNc1ccc([N+](=O)[O-])cc1[N+](=O)[O-])C(Br)C(=O)c1ccccc1 (configuration not stated)
6.38 µM: RPMI-8226 leukemia
6.25 µM: LOX IMVI melanoma
2.5 µM: SK-MEL-5 melanoma
9.04 µM: SK-OV-3 ovarian
6.96 µM: A498 renal
8.73 µM: SF-539 CNS
4.23 µM: COLO 205 colon
9.87 µM: PC-3 prostate
5.57 µM: HL-60(TB) leukemia
9.64 µM: EKVX NSCLC
9.29 µM: T-47D breast
8.31 µM: NCI-H226 lung | RXF 393 renal
8.83 µM: OVCAR-3 ovarian
6.13 µM: MDA-MB-231 breast
6.84 µM: M14 melanoma | HOP-62 NSCLC
8.78 µM: HCT-116 colon
7.67 µM: CCRF-CEM leukemia
6.28 µM: UACC-257 melanoma
9.72 µM: MOLT-4 leukemia
8.4 µM: NCI-H23 lung
6.66 µM: HOP-92 NSCLC
7.38 µM: SNB-75 CNS
not listed: NCI-H522 lung
> 10 µM: all other assays above
